Reference: ChEMBL document CHEMBL1131991, “Discovery of CP-199,330 and CP-199,331: two potent and orally efficacious cysteinyl LT1 receptor antagonists devoid of liver toxicity” (Bioorg Med Chem Lett, 1999)

Key:
[1] = Compound was evaluated for terminal half life in monkey; format: ADME; conditions: cercopithecidae, in vivo
Rattus norvegicus = species on record: Rattus norvegicus; assay: Compound was evaluated for Hepatic clearance in rat; format: ADME, organism-based, Liver; conditions: in vivo
[2] = Compound was evaluated for Hepatic clearance in monkey; format: ADME, organism-based, Liver; conditions: cercopithecidae, in vivo
[3] = Oral bioavailability in monkey; format: ADME, organism-based; conditions: cercopithecidae, in vivo
[4] = Oral bioavailability in rat; format: ADME, organism-based; conditions: in vivo
[5] = Compound was evaluated for terminal half life in rat; format: ADME, organism-based; conditions: in vivo
[6] = target: T1, Cysteinyl leukotriene receptor 1 (Cavia porcellus, UniProt Q2NNR5); assay: In vitro binding of Cysteinyl leukotriene receptor 1 to guinea pig lung membranes; format: tissue-based, Membrane
T1 sequence (Q2NNR5 whole entry): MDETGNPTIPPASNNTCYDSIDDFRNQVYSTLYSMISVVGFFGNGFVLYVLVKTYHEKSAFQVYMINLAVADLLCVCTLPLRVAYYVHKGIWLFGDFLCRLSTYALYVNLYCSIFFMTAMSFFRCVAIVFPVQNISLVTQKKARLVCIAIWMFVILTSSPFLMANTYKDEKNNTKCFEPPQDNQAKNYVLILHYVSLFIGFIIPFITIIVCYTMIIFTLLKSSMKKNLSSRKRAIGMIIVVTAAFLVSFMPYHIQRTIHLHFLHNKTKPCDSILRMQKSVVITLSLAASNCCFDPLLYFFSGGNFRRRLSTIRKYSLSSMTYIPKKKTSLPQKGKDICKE

Cavia porcellus [7] = assay: Compound was evaluated in vivo for antigen induced airway obstruction in guinea pig (OA) at 1.0 hour after oral administration; format: functional
Cavia porcellus [8] = assay: Compound was evaluated in vivo for cysLT1 receptor induced airway obstruction in guinea pig (OA) at 1.0 hour after oral administration.; format: functional
U-937 = assay: In vitro blocking of extracellular calcium mobilization in human U937 cells; format: functional, cell-based
Cavia porcellus [9] = assay: Compound was evaluated in vivo for antigen induced airway obstruction in guinea pig (OA) at 2.0 hour after oral administration.; format: functional
Cavia porcellus [10] = assay: Compound was evaluated in vivo for cysLT1 receptor induced airway obstruction in guinea pig (OA) at 2.0 hour after oral administration.; format: functional
Cavia porcellus [11] = assay: Compound was evaluated in vivo for cysLT1 receptor induced airway obstruction in guinea pig (OA) at 1.0 hour after oral administration; format: functional

Compound | half-life [1] | Clp (Rattus norvegicus) | Clp [2] | bioavailability [3] | bioavailability [4] | half-life [5] | Ki [6] | ED50 (Cavia porcellus [7]) | ED50 (Cavia porcellus [8]) | IC50 (U-937) | ED50 (Cavia porcellus [9]) | ED50 (Cavia porcellus [10]) | ED50 (Cavia porcellus [11])
COc1ccc(NS(=O)(=O)C(F)(F)F)cc1C[C@@H]1COc2ccc(OCc3nc4cc(F)c(F)cc4s3)cc2[C@@H]1O | 9.4 h | 8.3 mL/min/kg | 4.2 mL/min/kg | 72% | 46% | 8.8 h | 400 pM | 0.52 mg/kg | 0.08 mg/kg | 300 pM |  |  | 
O=C(Nc1cccc2c(=O)cc(-c3nnn[nH]3)oc12)c1ccc(OCCCCc2ccccc2)cc1 |  |  |  |  |  |  |  | 1.5 mg/kg |  |  |  |  | 
COc1cc(C(=O)NS(=O)(=O)c2ccccc2C)ccc1Cc1cn(C)c2ccc(NC(=O)OC3CCCC3)cc12 [ZAFIRLUKAST] |  |  |  |  |  |  |  |  |  |  | 0.9 mg/kg | 0.52 mg/kg | 
COc1ccc(NS(=O)(=O)C(F)(F)F)cc1C[C@@H]1COc2ccc(OCc3ccc4ccc(Cl)cc4n3)cc2[C@@H]1O | 2.1 h | 8.9 mL/min/kg | 6.5 mL/min/kg | 100% | 53% | 0.8 h | 600 pM | 0.46 mg/kg |  | 700 pM |  |  | 0.12 mg/kg
